Assay results reported in the Kinase Knowledgebase extract (Sharma et al. 2016).

Biological target: MAPK14 (human) (UniProt Q16539)
Assay: Inhibition of MAPK14 Kinase Activity

Sequence of MAPK14 (human) (Q16539 whole entry, looked up): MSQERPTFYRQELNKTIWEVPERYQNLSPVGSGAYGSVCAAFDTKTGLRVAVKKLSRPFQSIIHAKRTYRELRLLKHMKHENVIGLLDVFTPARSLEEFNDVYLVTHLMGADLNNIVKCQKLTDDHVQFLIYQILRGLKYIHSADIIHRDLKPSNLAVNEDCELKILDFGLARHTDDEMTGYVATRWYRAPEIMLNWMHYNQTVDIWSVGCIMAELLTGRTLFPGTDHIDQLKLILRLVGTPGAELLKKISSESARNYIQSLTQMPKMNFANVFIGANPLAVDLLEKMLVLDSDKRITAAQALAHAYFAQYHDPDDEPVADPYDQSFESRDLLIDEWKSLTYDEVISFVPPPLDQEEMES

Q: For `Cc1cc(C)cc(SC2CCC(=O)N(c3c(Cl)csc3Cl)C2)c1` (stereo not given), which IC50 is on record?
A: ≤ 10 µM

Q: For `O=C1OCCN1c1cc(Cl)c(N2CC(Cc3ccc(F)cc3F)CCC2=O)c(Cl)c1` (stereo not given), which IC50 is on record?
A: ≤ 10 µM

Q: For `O=C1CSC(Cc2ccc(F)cc2F)CN1c1c(Cl)cc(CO)cc1Cl` (stereo not given), which IC50 is on record?
A: ≤ 10 µM

Q: `O=C1OCC(Cc2ccc(Cl)cc2)CN1c1c(Cl)cccc1Cl` (stereo not given) was tested. Which IC50 did it give?
A: ≤ 10 µM

Q: For `O=C1CCC(Cc2ccccc2)CN1c1c(Cl)cc([N+](=O)[O-])cc1Cl` (stereo not given), which IC50 is on record?
A: ≤ 10 µM

Q: With `Cc1cc(C)cc(CC2CCC(=O)N(c3c(Cl)cccc3Cl)C2)c1` (stereo not given) as the compound, how does the IC50 read?
A: ≤ 10 µM

Q: Which IC50 does the source give for `C=C(c1ccc(F)cc1F)C1CCC(=O)N(c2c(Cl)cccc2Cl)C1` (stereo not given) here?
A: ≤ 10 µM

Q: With `Cc1cc(C(=O)O)cc(C)c1N1CC(Cc2ccc(F)cc2F)CNC1=O` (stereo not given) as the compound, how does the IC50 read?
A: ≤ 10 µM

Q: How did the IC50 turn out when `O=C1SCC(Cc2ccc(Cl)cc2Cl)CN1c1c(Cl)cccc1Cl` (stereo not given) was run?
A: ≤ 10 µM

Q: How did the IC50 turn out when `O=C1COC(Cc2ccc(Cl)cc2Cl)CN1c1c(Cl)cccc1Cl` (stereo not given) was run?
A: ≤ 10 µM

Q: For `O=C(Cc1ccccc1)Nc1ncc(Cl)c(N2CC(Oc3ccc(F)cc3F)CCC2=O)c1Cl` (stereo not given), which IC50 is on record?
A: ≤ 10 µM

Q: For `O=C1CCC(Cc2ccc(F)cc2F)CN1c1c(Cl)cc([N+](=O)[O-])cc1Cl` (stereo not given), which IC50 is on record?
A: ≤ 10 µM

Q: How did the IC50 turn out when `Cc1cc(C)cc(SC2CCC(=O)N(C3C(Cl)CCCC3Cl)C2)c1` (stereo not given) was run?
A: ≤ 10 µM

Q: With `CC(=O)NC1CCC(Cl)C(N2CC(Oc3ccc(F)cc3F)CCC2=O)C1Cl` (stereo not given) as the compound, how does the IC50 read?
A: ≤ 10 µM

Q: With `O=C1CCC(C(O)c2cccs2)CN1c1c(Cl)cc(Br)cc1Cl` (stereo not given) as the compound, how does the IC50 read?
A: ≤ 10 µM

Q: How did the IC50 turn out when `O=C(Cc1ccccc1)Nc1cnc(Cl)c(N2CC(Oc3ccc(F)cc3F)CCC2=O)c1Cl` (stereo not given) was run?
A: ≤ 10 µM

Q: `C[C@@H]1C[C@H](Cc2ccc(F)cc2F)CN(c2c(Cl)cccc2Cl)C1=O` was tested. Which IC50 did it give?
A: ≤ 10 µM

Q: How did the IC50 turn out when `Cc1cc(C(=O)NCCC(=O)O)cc(C)c1N1CC(Cc2ccc(F)cc2F)CCC1=O` (stereo not given) was run?
A: ≤ 10 µM

Q: `Cc1ccc(CC2COC(=O)N(c3c(Cl)cccc3Cl)C2)cc1` (stereo not given) was tested. Which IC50 did it give?
A: ≤ 10 µM

Q: Which IC50 does the source give for `O=C1OCC(Cc2ccc(F)cc2)CN1c1c(Cl)cccc1Cl` (stereo not given) here?
A: ≤ 10 µM

Q: With `Cc1cc(C#CCCN(C)C)cc(C)c1N1CC(Cc2ccc(F)cc2F)CCC1=O` (stereo not given) as the compound, how does the IC50 read?
A: ≤ 10 µM

Q: Which IC50 does the source give for `O=C(Cc1ccccc1)Nc1ccc(Cl)c(N2CC(Sc3ccc(F)cc3F)CCC2=O)c1Cl` (stereo not given) here?
A: ≤ 10 µM

Q: `COc1ccc(CC2CCC(=O)N(c3c(Cl)cncc3Cl)C2)cc1` (stereo not given) was tested. Which IC50 did it give?
A: ≤ 10 µM

Q: How did the IC50 turn out when `O=C1CCC(Cc2ccc(F)cc2)CN1c1c(Cl)cncc1Cl` (stereo not given) was run?
A: ≤ 10 µM

Q: `CCc1ccc(CC2CCC(=O)N(c3c(Cl)cccc3Cl)C2)cc1` (stereo not given) was tested. Which IC50 did it give?
A: ≤ 10 µM

Q: With `O=C1CCC(Oc2ccc(F)cc2F)CN1C1C(Cl)CCCC1Cl` (stereo not given) as the compound, how does the IC50 read?
A: ≤ 10 µM

Q: `O=C1NCC(Cc2ccc(F)cc2F)CN1c1c(Cl)cc(CO)cc1Cl` (stereo not given) was tested. Which IC50 did it give?
A: ≤ 10 µM

Q: With `CC(C)(C)OC(=O)N[C@@H](COCc1ccccc1)C(=O)Nc1cc(Cl)c(N2CC(Cc3ccc(F)cc3F)CCC2=O)c(Cl)c1` (stereo not given in full) as the compound, how does the IC50 read?
A: ≤ 10 µM

Q: `CN1CCN(C(=O)CNc2cc(Cl)c(N3CC(Cc4ccc(F)cc4F)CCC3=O)c(Cl)c2)CC1` (stereo not given) was tested. Which IC50 did it give?
A: ≤ 10 µM

Q: `COc1ccccc1CC1CSC(=O)N(c2c(Cl)cccc2Cl)C1` (stereo not given) was tested. Which IC50 did it give?
A: ≤ 10 µM

Q: For `O=C1CCC(Sc2ccc(F)cc2F)CN1c1c(Cl)cc(CO)nc1Cl` (stereo not given), which IC50 is on record?
A: ≤ 10 µM

Q: Which IC50 does the source give for `O=C1CCC(Sc2ccc(Cl)cc2)CN1c1c(Cl)cccc1Cl` (stereo not given) here?
A: ≤ 10 µM

Q: `O=C(Cc1ccccc1)Nc1ccc(Cl)c(N2CC(Cc3ccc(F)cc3F)CSC2=O)c1Cl` (stereo not given) was tested. Which IC50 did it give?
A: ≤ 10 µM

Q: `CN(C)CCNc1cc(Cl)c(N2CC(Cc3ccc(F)cc3F)CCC2=O)c(Cl)c1` (stereo not given) was tested. Which IC50 did it give?
A: ≤ 10 µM

Q: `O=C(Cc1ccccc1)Nc1cc(Cl)c(N2CC(Cc3ccc(F)cc3F)CCC2=O)c(Cl)n1` (stereo not given) was tested. Which IC50 did it give?
A: ≤ 10 µM
